Reference: ChEMBL document CHEMBL3045242, “Synthesis and Insect Growth Regulatory Activity of 1,5-Disubstituted Imidazoles with Non-terpene Chains” (Agric Biol Chem, 1991)
Active and inactive are the calls of the source. No cut-off for these calls is given here.

Test system: Bombyx mori
Assay: Juvenile hormone like activity in fourth-instar larvae of Bombyx mori assessed as induction of precocious metamorphosis at 1 ug applied topically
Assay type: functional
Conditions: not given

Question: With `COC(C)(C)CCC[C@H](C)C/C=C/C(C)=C/C(=O)OC(C)C` [METHOPRENE] as the compound, how does the Activity read?
Answer: 0%

Test system: Bombyx mori
Assay: Juvenile hormone like activity in third-instar larvae of Bombyx mori assessed as spun cocoons at fifth-instar at 5 to 160 ug applied topically
Assay type: functional, organism-based
Conditions: not given

Question: For `CC(C)n1cncc1-c1cccc(OCc2ccccc2)c1`, which Activity is on record?
Answer: Active

Question: With `CC(C)Cn1cncc1-c1cccc(Oc2ccccc2)c1` as the compound, how does the Activity read?
Answer: Active

Test system: Bombyx mori
Assay: Toxicity in third-instar larvae of Bombyx mori at 160 ug applied topically
Assay type: organism-based
Conditions: in vivo, topical_or_ocular

Question: For `CC(C)n1cncc1-c1cccc(OCc2ccccc2)c1`, which Activity is on record?
Answer: Toxic

Question: How did the Activity turn out when `CC(C)Cn1cncc1-c1ccc(Oc2ccccc2)cc1` was run?
Answer: Toxic

Test system: Bombyx mori
Assay: Juvenile hormone like activity in fourth-instar larvae of Bombyx mori C137 x N137 assessed as induction of precocious metamorphosis at > 40 ug/larvae applied topically
Assay type: functional
Conditions: not given

Question: `c1ccc(COc2cccc(-c3cncn3Cc3ccccc3)c2)cc1` was tested. Which Activity did it give?
Answer: 0%

Question: Which Activity does the source give for `CC(C)n1cncc1-c1ccc(OCc2ccccc2)cc1` here?
Answer: 30%

Question: With `CC(C)(C)Cn1cncc1-c1cccc(OCc2ccccc2)c1` as the compound, how does the Activity read?
Answer: 0%

Question: How did the Activity turn out when `CCCCn1cncc1-c1cccc(OCc2ccccc2)c1` was run?
Answer: 0%

Question: `CC(C)n1cncc1-c1cccc(O)c1` was tested. Which Activity did it give?
Answer: 0%

Question: How did the Activity turn out when `CC(C)n1cncc1-c1ccccc1OCc1ccccc1` was run?
Answer: 0%

Question: For `CC(C)=CCC/C(C)=C/COc1cccc(-c2cncn2CC(C)C)c1`, which Activity is on record?
Answer: 0%

Test system: Bombyx mori
Assay: Juvenile hormone like activity in fourth-instar larvae of Bombyx mori C137 x N137 assessed as induction of precocious metamorphosis applied topically
Assay type: functional
Conditions: not given

Question: With `CC(C)n1cncc1-c1cccc(OCc2ccccc2)c1` as the compound, how does the ED50 read?
Answer: 0.9 µg

Question: Which ED50 does the source give for `c1ccc(COc2cccc(-c3cncn3Cc3ccccc3)c2)cc1` here?
Answer: 40 µg

Question: With `CC(C)n1cncc1-c1ccc(OCc2ccccc2)cc1` as the compound, how does the ED50 read?
Answer: 40 µg

Question: How did the ED50 turn out when `CC(C)Cn1cncc1-c1ccc(Oc2ccccc2)cc1` was run?
Answer: 55.5 µg

Question: With `CCCn1cncc1-c1cccc(OCc2ccccc2)c1` as the compound, how does the ED50 read?
Answer: 21.1 µg

Question: Which ED50 does the source give for `Cn1cncc1-c1cccc(OCc2ccccc2)c1` here?
Answer: 60 µg

Question: Which ED50 does the source give for `CC(C)Cn1cncc1-c1cccc(OCc2ccccc2)c1` here?
Answer: 28 µg

Question: For `CC(C)(C)Cn1cncc1-c1cccc(OCc2ccccc2)c1`, which ED50 is on record?
Answer: 40 µg

Question: With `CCCCn1cncc1-c1cccc(OCc2ccccc2)c1` as the compound, how does the ED50 read?
Answer: 40 µg

Question: With `CC(C)n1cncc1-c1cccc(Oc2ccccc2)c1` as the compound, how does the ED50 read?
Answer: 21.6 µg

Question: For `CC(C)n1cncc1-c1cccc(O)c1`, which ED50 is on record?
Answer: >40 µg

Question: `CC(C)Cn1cncc1-c1cccc(Oc2ccccc2)c1` was tested. Which ED50 did it give?
Answer: 14.7 µg

Question: For `CCn1cncc1-c1cccc(OCc2ccccc2)c1`, which ED50 is on record?
Answer: 30.2 µg

Question: With `CC(C)n1cncc1-c1ccccc1OCc1ccccc1` as the compound, how does the ED50 read?
Answer: 40 µg

Question: Which ED50 does the source give for `CC(C)=CCC/C(C)=C/COc1cccc(-c2cncn2CC(C)C)c1` here?
Answer: >40 µg

Test system: Bombyx mori
Assay: Juvenile hormone like activity in third-instar larvae of Bombyx mori assessed as spun cocoons at fourth-instar at 5 to 160 ug applied topically
Assay type: functional, organism-based
Conditions: not given

Question: With `CC(C)n1cncc1-c1cccc(OCc2ccccc2)c1` as the compound, how does the Activity read?
Answer: Active

Question: Which Activity does the source give for `CC(C)Cn1cncc1-c1cccc(Oc2ccccc2)c1` here?
Answer: Active

Test system: Bombyx mori
Assay: Juvenile hormone like activity in fourth-instar larvae of Bombyx mori assessed as induction of precocious metamorphosis at 40 ug/larvae applied topically
Assay type: functional
Conditions: not given

Question: For `CC(C)n1cncc1-c1cccc(OCc2ccccc2)c1`, which Activity is on record?
Answer: 100%

Test system: Bombyx mori
Assay: Juvenile hormone like activity in fourth-instar larvae of Bombyx mori C146 x N137 assessed as induction of precocious metamorphosis at > 40 ug/larvae applied topically
Assay type: functional
Conditions: not given

Question: `CC(C)n1cncc1-c1cccc(OCc2ccc(Cl)cc2)c1` was tested. Which Activity did it give?
Answer: 20%

Question: Which Activity does the source give for `CC(C)n1cncc1-c1cccc(OCc2ccccc2Cl)c1` here?
Answer: 0%

Question: `CC(C)n1cncc1-c1cccc(OCCc2ccccc2)c1` was tested. Which Activity did it give?
Answer: 20%

Question: Which Activity does the source give for `CC(C)n1cncc1-c1cccc(OCc2cccc(Cl)c2)c1` here?
Answer: 5%

Question: How did the Activity turn out when `CCCCCCCCOc1cccc(-c2cncn2C(C)C)c1` was run?
Answer: 25%

Question: Which Activity does the source give for `CC(C)=CCC/C(C)=C/COc1cccc(-c2cncn2C(C)C)c1` here?
Answer: 0%

Question: `COc1ccc(COc2cccc(-c3cncn3C(C)C)c2)cc1` was tested. Which Activity did it give?
Answer: 15%

Question: How did the Activity turn out when `CC(Oc1cccc(-c2cncn2C(C)C)c1)c1ccccc1` (stereo unspecified) was run?
Answer: 0%

Question: For `COc1cccc(COc2cccc(-c3cncn3C(C)C)c2)c1`, which Activity is on record?
Answer: 25%

Question: `CC(C)COc1cccc(-c2cncn2C(C)C)c1` was tested. Which Activity did it give?
Answer: 35%

Question: How did the Activity turn out when `CCCCCCOc1cccc(-c2cncn2C(C)C)c1` was run?
Answer: 35%

Question: For `COc1cccc(-c2cncn2C(C)C)c1`, which Activity is on record?
Answer: 0%

Test system: Bombyx mori
Assay: Juvenile hormone like activity in fourth-instar larvae of Bombyx mori assessed as induction of precocious metamorphosis at 40 ug/larvae applied topically in presence of 1 ug of methoprene
Assay type: functional
Conditions: not given

Question: For `CC(C)n1cncc1-c1cccc(OCc2ccccc2)c1`, which Activity is on record?
Answer: 0%

Test system: Bombyx mori
Assay: Juvenile hormone like activity in fourth-instar larvae of Bombyx mori C137 x N137 assessed as induction of precocious metamorphosis at > 60 ug/larvae applied topically
Assay type: functional
Conditions: not given

Question: `Cn1cncc1-c1cccc(OCc2ccccc2)c1` was tested. Which Activity did it give?
Answer: 0%

Test system: Bombyx mori
Assay: Juvenile hormone like activity in fourth-instar larvae of Bombyx mori assessed as induction of precocious metamorphosis at 40 ug/larvae applied topically in presence of 0.1 ug of methoprene
Assay type: functional
Conditions: not given

Question: How did the Activity turn out when `CC(C)n1cncc1-c1cccc(OCc2ccccc2)c1` was run?
Answer: 70%

Test system: Bombyx mori
Assay: Juvenile hormone like activity in fourth-instar larvae of Bombyx mori C146 x N137 assessed as induction of precocious metamorphosis applied topically
Assay type: functional
Conditions: not given

Question: How did the ED50 turn out when `CC(C)n1cncc1-c1cccc(OCc2ccccc2)c1` was run?
Answer: 13.2 µg

Question: Which ED50 does the source give for `CC(C)n1cncc1-c1cccc(OCc2ccc(Cl)cc2)c1` here?
Answer: >40 µg

Question: Which ED50 does the source give for `CC(C)n1cncc1-c1cccc(OCc2ccccc2Cl)c1` here?
Answer: >40 µg

Question: How did the ED50 turn out when `CC(C)n1cncc1-c1cccc(OCCc2ccccc2)c1` was run?
Answer: >40 µg

Question: How did the ED50 turn out when `CC(C)n1cncc1-c1cccc(OCc2cccc(Cl)c2)c1` was run?
Answer: >40 µg

Question: With `CCCCCCCCOc1cccc(-c2cncn2C(C)C)c1` as the compound, how does the ED50 read?
Answer: >40 µg

Question: `CC(C)=CCC/C(C)=C/COc1cccc(-c2cncn2C(C)C)c1` was tested. Which ED50 did it give?
Answer: >40 µg

Question: For `CC(C)n1cncc1-c1cccc(Oc2ccccc2)c1`, which ED50 is on record?
Answer: 53.3 µg

Question: How did the ED50 turn out when `CC(C)n1cncc1-c1cccc(OCc2ccc(F)cc2)c1` was run?
Answer: >40 µg

Question: For `COc1ccc(COc2cccc(-c3cncn3C(C)C)c2)cc1`, which ED50 is on record?
Answer: >40 µg

Question: `CC(Oc1cccc(-c2cncn2C(C)C)c1)c1ccccc1` (stereo unspecified) was tested. Which ED50 did it give?
Answer: >40 µg

Question: With `COc1cccc(COc2cccc(-c3cncn3C(C)C)c2)c1` as the compound, how does the ED50 read?
Answer: >40 µg

Question: How did the ED50 turn out when `CC(C)COc1cccc(-c2cncn2C(C)C)c1` was run?
Answer: >40 µg

Question: For `CCCCCCOc1cccc(-c2cncn2C(C)C)c1`, which ED50 is on record?
Answer: >40 µg

Question: For `COc1cccc(-c2cncn2C(C)C)c1`, which ED50 is on record?
Answer: >40 µg

Test system: Bombyx mori
Assay: Juvenile hormone like activity in fourth-instar larvae of Bombyx mori assessed as induction of precocious metamorphosis at 40 ug/larvae applied topically in presence of 0.5 ug of methoprene
Assay type: functional
Conditions: not given

Question: Which Activity does the source give for `CC(C)n1cncc1-c1cccc(OCc2ccccc2)c1` here?
Answer: 30%
